Reference: the supplement of paper PMC10307832

Columns and labels:
Experiment in all cases: relative viability (nuclei count vs DMSO), 5 days (fraction); higher = more cells survive
YM155 + OSI-027 = compound: COCC[n+]1c2c(n(Cc3cnccn3)c1C)C(=O)c1ccccc1C2=O [YM155] + COc1cccc2cc(-c3nc([C@H]4CC[C@H](C(=O)O)CC4)n4ncnc(N)c34)[nH]c12 [OSI-027] (partner 0.5 µM)
In short: (§1)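 Lung cancer cell lines were seeded in 1536-well plates and dosed by pin tool the next day, with either a single drug or a fixed anchor-drug dose combined with five library-drug doses (not always all listed) spaced in √10 steps. Five days later, one step fixed the cells and stained their nuclei (final 0.05% Triton X-100, 1% formaldehyde, 1 ug/ml Hoechst), and nuclei were counted on 4× images. Relative viability is the nuclei count in treated wells divided by the count in vehicle wells, and each value is the median of duplicate plates.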

Quizartinib + Foretinib = compound: CC(C)(C)c1cc(NC(=O)Nc2ccc(-c3cn4c(n3)sc3cc(OCCN5CCOCC5)ccc34)cc2)no1 [Quizartinib] + COc1cc2c(Oc3ccc(NC(=O)C4(C(=O)Nc5ccc(F)cc5)CC4)cc3F)ccnc2cc1OCCCN1CCOCC1 [Foretinib] (partner 0.25 µM)
In short: as §1

YM155 + AZD7762 = compound: COCC[n+]1c2c(n(Cc3cnccn3)c1C)C(=O)c1ccccc1C2=O [YM155] + NC(=O)Nc1cc(-c2cccc(F)c2)sc1C(=O)N[C@H]1CCCNC1 [AZD7762] (partner 0.2 µM)
In short: as §1

Quizartinib + Lapatinib = compound: CC(C)(C)c1cc(NC(=O)Nc2ccc(-c3cn4c(n3)sc3cc(OCCN5CCOCC5)ccc34)cc2)no1 [Quizartinib] + CS(=O)(=O)CCNCc1ccc(-c2ccc3ncnc(Nc4ccc(OCc5cccc(F)c5)c(Cl)c4)c3c2)o1 [Lapatinib] (partner 2 µM)
In short: as §1

Cell Line	relative viability (YM155 + OSI-027; first compound 0.002 µM)	relative viability (YM155 + OSI-027; first compound 0.006325 µM)	relative viability (YM155 + OSI-027; first compound 0.02 µM)	relative viability (YM155 + OSI-027; first compound 0.06325 µM)	relative viability (Quizartinib + Foretinib; first compound 0.001 µM)	relative viability (Quizartinib + Foretinib; first compound 0.003162 µM)	relative viability (Quizartinib + Foretinib; first compound 0.01 µM)	relative viability (Quizartinib + Foretinib; first compound 0.03162 µM)	relative viability (Quizartinib + Foretinib; first compound 0.1 µM)	relative viability (YM155 + AZD7762; first compound 0.002 µM)	relative viability (YM155 + AZD7762; first compound 0.006325 µM)	relative viability (YM155 + AZD7762; first compound 0.02 µM)	relative viability (YM155 + AZD7762; first compound 0.06325 µM)	relative viability (Quizartinib + Lapatinib; first compound 0.003162 µM)	relative viability (Quizartinib + Lapatinib; first compound 0.01 µM)	relative viability (Quizartinib + Lapatinib; first compound 0.03162 µM)	relative viability (Quizartinib + Lapatinib; first compound 0.1 µM)	relative viability (Quizartinib + Lapatinib; first compound 0.001 µM)
LCLC-97TM1	0.442	0.539	0.548	0.469	0.889	0.802	0.906	0.953	0.971	0.158	0.251	0.231	0.096	0.862	0.527	0.848	1.43	–
LK-2	0.187	0.21	0.214	0.201	1.29	–	1.03	1.33	1.43	0.445	0.305	0.494	0.438	0.854	1	0.723	0.761	0.839
LOU-NH91	0.689	0.751	0.757	0.762	0.967	0.903	0.906	0.902	1.02	0.766	0.756	0.769	0.8	0.806	0.804	0.522	0.785	0.724
LU99A	0.285	0.274	0.322	0.28	0.715	0.871	0.838	0.808	0.603	0.553	0.27	0.412	0.28	0.901	0.999	1	0.968	0.857
LXF-289	0.723	0.856	0.767	0.785	0.913	1	1.13	0.948	0.888	1.1	1.07	1.07	0.937	0.838	0.932	0.923	0.892	0.788
NCI-H23	0.498	0.66	0.599	0.522	–	1.03	0.975	0.934	0.819	–	0.292	0.308	0.239	0.959	1.28	0.861	1.01	–
NCI-H322M	0.58	0.525	0.533	0.581	0.86	0.939	0.939	0.851	0.954	0.53	0.579	0.593	0.572	0.502	0.605	0.628	0.673	0.565
NCI-H358	0.684	0.981	0.887	0.552	0.613	0.796	0.634	0.438	0.642	–	0.523	0.437	0.281	0.516	0.412	–	0.39	0.349
NCI-H460	0.584	0.769	0.757	0.694	0.916	0.961	1.03	0.652	0.976	0.596	0.628	0.777	0.459	1.03	1.26	–	0.205	0.924
NCI-H596	0.735	0.806	0.743	0.85	0.925	0.816	0.949	0.903	0.754	0.989	0.98	1.28	1.11	0.985	1.08	1.08	1.17	1.06
NCI-H647	0.812	0.736	0.762	0.483	0.818	1.09	1.1	1.16	1.17	0.429	0.509	0.407	0.0872	1.1	1.12	0.97	0.985	0.966
NCI-H650	0.503	0.542	0.572	0.52	1.02	1.04	1.16	0.978	1.18	0.835	0.958	1.08	0.776	0.754	0.726	0.688	1.1	0.888
NCI-H727	0.473	0.612	0.703	0.595	0.71	0.877	0.838	0.801	0.871	0.768	0.676	0.684	0.703	–	0.929	0.875	0.725	0.876
NCI-H838	0.361	0.406	0.421	0.438	0.991	1.01	0.99	0.938	0.684	0.936	0.904	0.932	0.726	1.11	0.784	0.675	0.605	0.816
NCI-H1355	0.386	0.394	0.454	0.47	0.917	0.957	0.936	0.814	1.06	0.74	0.749	0.781	0.798	0.992	1	0.914	1.06	0.979
NCI-H1395	0.579	0.665	0.684	0.705	0.961	0.971	1.02	0.995	1.03	0.351	0.41	0.4	0.434	0.941	0.883	0.842	1.2	0.992
NCI-H1437	0.838	0.844	0.871	0.783	0.719	1.16	1.28	1.07	0.949	1.11	1.08	1.1	0.926	0.827	0.764	0.45	0.543	0.738
NCI-H1651	0.685	0.774	0.88	0.585	0.766	0.747	0.872	0.606	0.769	0.44	0.433	0.533	0.487	0.831	0.781	0.274	0.821	0.718

Cell Line	relative viability (YM155 + OSI-027; first compound 0.002 µM)	relative viability (YM155 + OSI-027; first compound 0.006325 µM)	relative viability (YM155 + OSI-027; first compound 0.02 µM)	relative viability (YM155 + OSI-027; first compound 0.06325 µM)	relative viability (Quizartinib + Foretinib; first compound 0.001 µM)	relative viability (Quizartinib + Foretinib; first compound 0.003162 µM)	relative viability (Quizartinib + Foretinib; first compound 0.01 µM)	relative viability (Quizartinib + Foretinib; first compound 0.03162 µM)	relative viability (Quizartinib + Foretinib; first compound 0.1 µM)	relative viability (YM155 + AZD7762; first compound 0.002 µM)	relative viability (YM155 + AZD7762; first compound 0.006325 µM)	relative viability (YM155 + AZD7762; first compound 0.02 µM)	relative viability (YM155 + AZD7762; first compound 0.06325 µM)	relative viability (Quizartinib + Lapatinib; first compound 0.003162 µM)	relative viability (Quizartinib + Lapatinib; first compound 0.01 µM)	relative viability (Quizartinib + Lapatinib; first compound 0.03162 µM)	relative viability (Quizartinib + Lapatinib; first compound 0.1 µM)	relative viability (Quizartinib + Lapatinib; first compound 0.001 µM)
NCI-H1666	0.767	0.911	0.859	0.841	0.749	0.925	1.03	0.783	1.02	0.821	0.824	0.907	0.847	0.634	0.727	0.38	0.639	0.691
NCI-H1734	0.599	0.586	0.616	0.684	0.693	0.776	0.933	0.862	0.802	0.489	0.582	0.614	0.539	1.1	1.08	0.873	0.998	0.869
NCI-H1755	0.716	0.753	0.747	0.705	0.826	0.881	0.93	0.956	0.822	0.478	0.445	0.427	0.493	0.98	1.1	1.07	1.04	0.909
NCI-H1793	0.242	0.308	0.259	0.269	0.728	0.59	0.797	0.759	0.729	0.329	0.619	0.532	0.46	0.743	0.82	0.899	0.795	0.533
NCI-H1915	0.585	0.593	0.613	0.574	1.06	0.992	1.13	1.03	1.07	0.728	0.659	0.662	0.553	0.931	0.938	0.965	1.04	0.939
NCI-H1944	0.364	0.381	0.445	0.485	0.854	0.825	0.938	0.888	0.795	0.619	0.414	0.531	0.58	0.868	0.707	0.792	0.721	0.768
NCI-H1975	0.596	0.742	0.67	0.541	0.936	0.89	0.869	0.843	1.14	0.726	0.734	0.701	0.439	0.894	0.847	0.864	1.18	0.746
NCI-H1993	0.563	0.569	0.583	0.522	0.806	0.809	0.793	0.81	0.792	0.687	0.775	0.475	0.537	0.846	0.72	0.746	0.891	0.786
NCI-H2085	0.742	0.783	0.809	0.421	0.868	0.853	1.2	0.873	0.883	0.928	0.975	0.979	0.801	0.769	0.851	0.809	0.742	0.733
NCI-H2087	0.492	0.567	0.715	0.618	–	1.05	1.12	0.941	1.07	1.18	1.29	1.26	1.04	0.906	1	1.09	0.935	0.665
NCI-H2126	0.645	0.714	0.761	0.727	1	1.12	1.2	1.22	1.23	0.995	1.04	1.08	1.05	0.705	0.744	0.801	0.863	0.704
NCI-H2170	0.698	0.785	0.695	0.74	0.932	0.956	1.08	0.981	1.12	0.873	0.817	0.839	0.734	0.273	0.253	0.262	0.272	0.257
NCI-H2347	0.371	0.504	0.421	0.421	0.655	0.963	0.638	0.892	0.938	0.659	0.748	0.807	0.732	0.923	0.94	1.03	1.1	0.604
NCI-H2405	0.625	0.613	0.616	0.465	0.96	1.04	1.03	1.05	1.07	0.609	0.656	0.578	0.39	1.16	0.969	0.934	1.3	1.11
NCI-H3122	0.995	1	1.05	0.715	0.919	0.918	0.988	0.953	0.965	1.02	1.03	0.974	0.971	0.903	1.04	1.05	1.04	1.08
PC-3 [JPC-3]	0.784	0.783	0.808	0.809	0.947	1.03	1.11	1.04	1.07	0.742	0.872	0.927	0.697	0.472	0.471	0.481	0.415	0.416
PC-14	0.788	0.901	0.829	0.371	0.844	0.893	0.973	0.953	0.971	0.233	0.343	0.371	0.363	0.322	0.306	0.333	0.337	0.271
